The values that follow come from patent US20060014717A1, “Therapeutic compositions for use in prophylaxis or treatment of diarrheas” (priority 2002, published 2006).

One test relates to diarrheagenic E. coli. The test can be described thus: Inhibition with soluble oligosaccharides in the chromatogram binding assay. Details: species or system Escherichia coli. Here is the method:
(§1) Glycosphingolipid Binding Assays—Binding of ^35S-labeled bacteria to glycosphingolipids on thin-layer chromatograms was done as reported (7). Dried chromatograms were dipped for 1 min in diethylether/n-hexane (1:5, by volume) containing 0.5% (w/v) polyisobutylmethacrylate (Aldrich Chem. Comp. Inc., Milwaukee, Wis.). After drying, the chromatograms were soaked in PBS containing 2% bovine serum albumin (w/v), 0.1% NaN3 (w/v) and 0.1% Tween 20 (by volume) for 2 h at room temperature. The chromatograms were subsequentely covered with radiolabeled bacteria diluted in PBS (2-5×10^6 cpm/ml). Incubation was done for 2 h at room temperature, followed by repeated washings with PBS. The chromatograms were thereafter autoradiographed using XAR-5 X-ray films (Eastman Kodak, Rochester, N.Y.) for 12 h. Autoradiograms were replicated using a CCD camera (Dage-MTI, Inc., Michigan City, Ind.), and analysis of the images was performed using the public domain NIH Image program (developed at the U.S. National Institutes of Health, and available at http://rsb.info.nih.eov/nih-imaee/).
The final concentrations of the inhibiting oligosaccharides on the TLC-plate were 0.3 mM. […] Thereafter the chromatogram binding assay was performed as described above.

Test [1] concerns diarrheagenic Escherichia coli CCUG 38068 (EPEC). The test can be described thus: Chromatogram binding assay of 35S-labeled bacteria to glycosphingolipids on thin-layer plates. To be noted: thin-layer chromatograms, TLC overlay. Here is the method: (§2) Culture Conditions and Labeling—The E. coli strains were cultured on Luria-agar with the addition of 10 μl ^35S-methionine (400 tici; Amersham Pharmacia Biotech, U.K.) at 37° C. for 12 h. The bacteria were harvested by scraping, washed three times with phosphate-buffered saline (PBS), pH 7.3, and thereafter resuspended in PBS (with or without 1% mannose (w/v)) to 1×10^8 CFU/ml. The specific activities of the suspensions were approximately 1 cpm per 100 bacteria.
(§3) Thin-Layer Chromatography—Thin-layer chromatography of glycosphingolipids was performed on glass- or aluminum-backed silica gel 60 HPTLC plates (Merck, Darmstadt, Germany), using chloroform/methanol/water 60:35:8 (by volume) as solvent system. Chemical detection was done with anisaldehyde (6).
as §1

The test system of test [2] is diarrheagenic Escherichia coli CCUG 38077 (EAEC). The description is as above. Conditions: thin-layer chromatograms, TLC overlay. As for the experimental part: as §2, §3, §1
Another test deals with EPEC strain. To be noted: listed in decreasing order of activity; cited from earlier work.
Another test has as its system H. pylori CCUG 17874. The experiment in a line: Binding of 35S-labeled Helicobacter species to glycosphingolipids on thin-layer chromatograms. Details: species or system Helicobacter pylori; key: + denotes a significant darkening on the autoradiogram when 2 μg (or 40 μg in the case of the last sample) was applied to TLC plates; − denotes no binding. To be noted: 2 μg (40 μg for the glycosphingolipid fraction) on TLC plates. From the text:
(§4) Gastric species examined in the present study included, Helicobacter mustelae ferret isolates from the National Collection of Type Cultures (NCTC) and the Culture Collection of the University of Gothenberg (CCUG), NCTC 12198/CCUG 25175 (equivalent strains from different sources tested), CCUG 23950 and CCUG 23951, Helicobacterfelis CCUG 28539 from a cat, in addition, H. pylori strains CCUG 17874, CCUG 17875 and a clinical isolate 119/95 were used. Enterohepatic helicobacters of animal origin were purchased from the CCUG including, Helicobacter canes CCUG 33835, Helicobacter bilis CCUG 38995, Helicobacter hepaticus CCUG 33637, and Helicobacterfennelliae (CCUG 18820).
(§5) Binding of Helicobacter spp. to glycosphingolipids, both acid and non-acidfractions. Glycosphingolipids were isolated by standard procedures (Karlsson, 1987). The identity of the purified glycosphingolipids was confirmed by mass spectrometry (Samuelsson et al., 1990), proton NMR spectroscopy (Koerner et al., 1983) and degradation studies (Stellner et al., 1973; Yang and Hakomori, 1971).
(§6) Mixtures of glycosphingolipids (40 μg/lane) or pure compounds (2 μg/lane) were subsequently separated using thin-layer chromatography (TLC) on glass- or aluminum-backed silica gel 60 HPTLC plates (Merck, Darmstadt, Germany), with chloroform/methanot/water (60:35:8, by volume) as solvent system. Chemical detection was accomplished by anisaldehyde (Waldi, 1962). Helicobacter spp. were subjected to ^35S-labeling (Angstrom et al., 1998) and suspended in PBS (10^8 CFU/ml) with a specific activity of approximately 1 cpm per 100 organisms. Binding of the labeled-bacteria to glycosphingolipids separated by TLC was achieved using a bacterial-overlay technique coupled with autoradiography detection using XAR-5 X-ray films (Eastman Kodak, Rochester, N.Y.) as previously described (Hansson et al., 1985).

The next test deals with H. pylori CCUG 17875. The description is as above. Conditions: 2 μg (40 μg for the glycosphingolipid fraction) on TLC plates. More on the design: species or system Helicobacter pylori; key: + denotes a significant darkening on the autoradiogram when 2 μg (or 40 μg in the case of the last sample) was applied to TLC plates; − denotes no binding.
Description: as §4, §5, §6

The test system of a further test is H. felis CCUG 28539. Described as above. Details: species or system Helicobacter felis; key: + denotes a significant darkening on the autoradiogram when 2 μg (or 40 μg in the case of the last sample) was applied to TLC plates; − denotes no binding. Conditions: 2 μg (40 μg for the glycosphingolipid fraction) on TLC plates.
Description: as §4, §5, §6

The next test deals with H. canis CCUG 33835. The test is described as above. Details: species or system Helicobacter canis; key: + denotes a significant darkening on the autoradiogram when 2 μg (or 40 μg in the case of the last sample) was applied to TLC plates; − denotes no binding. To be noted: 2 μg (40 μg for the glycosphingolipid fraction) on TLC plates.
Description: as §4, §5, §6

In another test the test system is H. hepaticus CCUG 33637. The test is described as above. More on the design: species or system Helicobacter hepaticus; key: + denotes a significant darkening on the autoradiogram when 2 μg (or 40 μg in the case of the last sample) was applied to TLC plates; − denotes no binding. Conditions: 2 μg (40 μg for the glycosphingolipid fraction) on TLC plates.
Description: as §4, §5, §6

Another test has as its system H. mustelae 25715. The test is described as above. To be noted: 2 μg (40 μg for the glycosphingolipid fraction) on TLC plates. More on the design: species or system Helicobacter mustelae; key: + denotes a significant darkening on the autoradiogram when 2 μg (or 40 μg in the case of the last sample) was applied to TLC plates; − denotes no binding.
Description: as §4, §5, §6

The subject of test [3] is H. mustelae CCUG 23950 & 23951. Described as above. Conditions: 2 μg (40 μg for the glycosphingolipid fraction) on TLC plates. More on the design: species or system Helicobacter mustelae; key: + denotes a significant darkening on the autoradiogram when 2 μg (or 40 μg in the case of the last sample) was applied to TLC plates; − denotes no binding.
Description: as §4, §5, §6

The test system of another test is H. bilis CCUG 38995. The test is described as above. Details: species or system Helicobacter bilis; key: + denotes a significant darkening on the autoradiogram when 2 μg (or 40 μg in the case of the last sample) was applied to TLC plates; − denotes no binding. Conditions: 2 μg (40 μg for the glycosphingolipid fraction) on TLC plates.
Description: as §4, §5, §6

As to `CC(=O)N[C@H]1[C@H](O[C@H]2[C@@H](O)[C@@H](CO)O[C@@H](O[C@H]3[C@H](O)[C@@H](O)C(O)O[C@@H]3CO)[C@@H]2O)O[C@H](CO)[C@@H](O[C@@H]2O[C@H](CO)[C@H](O)[C@H](O)[C@H]2O)[C@@H]1O` (mixture of isomers) [Lacto-N-neotetraose, Galβ4GlcNAcβ3Galβ4Glc], the “Inhibition of binding to neolacto glycolipid” value with diarrheagenic E. coli (0.3 mM final concentration) is reported as “inhibited binding”.

On to `CC(=O)N[C@H]1C(O)O[C@H](CO)[C@H](O)[C@@H]1O[C@@H]1O[C@H](CO)[C@H](O)[C@H](O)[C@H]1O` (stereo partly shown) [Galβ3GalNAc], for which the “Activity as monovalent inhibitor against the Ganglio-receptor glycolipid” value with diarrheagenic E. coli (0.3 mM concentration) was “not active”.

As to `CCCCCCCCCCCCCCCCc1ccc(NC[C@H](O)[C@@H](O)[C@H](O[C@@H]2O[C@H](CO[C@@H]3O[C@H](CO)[C@@H](O)[C@H](O)[C@H]3NC(C)=O)[C@H](O)[C@H](O[C@@H]3O[C@H](CO)[C@@H](O)[C@H](O[C@@H]4O[C@H](CO)[C@H](O)[C@H](O)[C@H]4O)[C@H]3NC(C)=O)[C@H]2O)[C@H](O)CO)cc1` [Galβ3GlcNAcβ3(GlcNAcβ6)Galβ4Glc(red)-HDA], the “Binding of strain CCUG 38068 to glycosphingolipids and neoglycolipids, in words” value in [1] is given as “much weaker or non-existent binding activities”. Also, the “Binding of strain CCUG 38077 to glycosphingolipids and neoglycolipids, in words” value in test [2] is “much weaker or non-existent binding activities”.

For `CCCCCCCCCCCCCCCCc1ccc(NC[C@H](O)[C@@H](O)[C@H](O[C@@H]2O[C@H](CO)[C@H](O)[C@H](O[C@@H]3O[C@H](CO)[C@@H](O[C@@H]4O[C@H](CO)[C@H](O)[C@H](O[C@@H]5O[C@H](CO)[C@@H](O)[C@H](O)[C@H]5NC(C)=O)[C@H]4O)[C@H](O)[C@H]3NC(C)=O)[C@H]2O)[C@H](O)CO)cc1` [GlcNAcβ3Galβ4GlcNAcβ3Galβ4Glc(red)-HDA], the “Binding of strain CCUG 38068 to glycosphingolipids and neoglycolipids, in words” value in test [1] is “had binding activity”. In addition, the “Binding of strain CCUG 38077 to glycosphingolipids and neoglycolipids, in words” value in test [2] is recorded as “had binding activity”.

Take `CCCCCCCCCCCCCCCCc1ccc(NC[C@H](O)[C@@H](O)[C@H](O[C@@H]2O[C@H](CO[C@@H]3O[C@H](CO)[C@@H](O[C@@H]4O[C@H](CO)[C@H](O)[C@H](O[C@@H]5O[C@H](CO)[C@@H](O)[C@H](O)[C@H]5NC(C)=O)[C@H]4O)[C@H](O)[C@H]3NC(C)=O)[C@H](O)[C@H](O)[C@H]2O)[C@H](O)CO)cc1` [GlcNAcβ3Galβ4GlcNAcβ6Galβ4Glc(red)HDA, GlcNAcβ3Galβ4GlcNAcβ6Galβ4Glc(red)-HDA]: the “Binding of strain CCUG 38068 to glycosphingolipids and neoglycolipids, in words” value in [1] is given as “much weaker or non-existent binding activities”. In test [2], the “Binding of strain CCUG 38077 to glycosphingolipids and neoglycolipids, in words” value was “much weaker or non-existent binding activities”.

For the compound `CC(=O)N[C@H]1[C@H](O[C@H]2[C@@H](O)[C@@H](CO)O[C@@H](O[C@H]3[C@H](O)[C@@H](O)C(O)O[C@@H]3CO)[C@@H]2O)O[C@H](CO)[C@@H](O)[C@@H]1O[C@@H]1O[C@H](CO)[C@H](O)[C@H](O)[C@H]1O` (stereo partly shown) [Lacto-N-tetraose, Galβ3GlcNAcβ3Galβ4Glc], the “Inhibition of binding to lactotetraosylceramide” value with diarrheagenic E. coli (lowest densities of glycolipids) is reported as “able to inhibit”. For the same compound, the “Binding of an EPEC strain to commercial glycolipids” value (“Binding of an EPEC strain” below) in the test with EPEC strain is reported as “observed to bind”.

With `CCCCCCCCCCCCCCCCc1ccc(NC[C@@H](O)[C@@H](O[C@H]2O[C@H](CO)[C@@H](O)[C@H](O)[C@@H]2O)[C@H](O)[C@H](O)CO[C@H]2O[C@H](CO)[C@@H](O)[C@H](O)[C@@H]2O)cc1` [Manα3(Manα6)Man(red)-HDA], the “Binding of strain CCUG 38068 to glycosphingolipids and neoglycolipids, in words” value in test [1] is “had binding activity”; in test [1] (listed as Manα3(Manα6)Man), “bind”. In addition, the “Binding of strain CCUG 38077 to glycosphingolipids and neoglycolipids, in words” value in [2] is recorded as “had binding activity”; in [2] (listed as Manα3(Manα6)Man), “bind”.

On to “GalNAcα3GalNAcβ3Galα4Galβ4Glcβ1Cer [No. 14]”, for which the “Binding of an EPEC strain” value in the test with EPEC strain is listed as “negative”.

For the compound GalNAcβ4Galβ4Glcβ1Cer [No. 10], in the test on EPEC strain, the “Binding of an EPEC strain” value is on record as “observed to bind”.

For the compound Galα4Galβ4Glcβ1Cer [No. 8], the “Binding of an EPEC strain” value with EPEC strain is reported as “negative”.

With “NeuGcα3Galβ4GlcNAcβ3Galβ4GlcNAcβ3Galβ4Glcβ1Cer [No. 36]”, the “Binding of glycosphingolipids to H.pylori 17874” value in the test with H. pylori CCUG 17874 is “+”. The “Binding of glycosphingolipids to H.pylori 17875” value with H. pylori CCUG 17875 is on record as “+”. In addition, the “Binding of glycosphingolipids to H.felis 28539” value in the test on H. felis CCUG 28539 is given as “+”. Besides, in the test with H. canis CCUG 33835, the “Binding of glycosphingolipids to H.canis 33835” value was “+”. Besides, the “Binding of glycosphingolipids to H.hepaticus 33637” value in the test with H. hepaticus CCUG 33637 was “+”. The “Binding of glycosphingolipids to H.mustelae 25715” value with H. mustelae 25715 was “+”. Besides, in test [3], the “Binding of glycosphingolipids to H.mustelae 23950 & 23951” value is on record as “+”. For the same compound, in the test with H. bilis CCUG 38995, the “Binding of glycosphingolipids to H.bilis 38995” value was “+”.
